Experimental data reported in ChEMBL document CHEMBL6120946, “From Hit to Lead: Discovery of First-In-Class Furanone Glycoside D228 Derived from Chimonanthus salicifolius for the Treatment of Inflammatory Bowel Disease” (J Med Chem, 2024).
Active and inactive are the calls of the source. No cut-off for these calls is given here.

Assays:
[1] = Toxicity in female Kunming mouse assessed as effect on TG level in serum at 100 to 500 mg/kg/day, po measured after 5 weeks; assay type: organism-based; settings: in vivo, 840 h, dose 100-500 mg/kg/day
[2] = Toxicity in male Kunming mouse assessed as lethal dose administered as po measured after 5 weeks; assay type: organism-based; settings: in vivo
[3] = Toxicity in female Kunming mouse assessed as effect on liver to body weight ratio at 100 to 500 mg/kg/day, po measured after 5 weeks; assay type: organism-based; settings: in vivo, 840 h, dose 100-500 mg/kg/day
[4] = Toxicity in female Kunming mouse assessed as effect on GLU level in serum at 100 to 500 mg/kg/day, po measured after 5 weeks; assay type: organism-based; settings: in vivo, 840 h, dose 100-500 mg/kg/day
[5] = Metabolic stability in human plasma assessed as half life at pH 7.4 measured upto 60 mins by HPLC-MS analysis; assay type: ADME, cell-free
[6] = Toxicity in female Kunming mouse assessed as effect on TBIL level in serum at 100 to 500 mg/kg/day, po measured after 5 weeks; assay type: organism-based; settings: in vivo, 840 h, dose 100-500 mg/kg/day
Mus musculus [7] = assay: Antiinflammatory activity in DSS-induced male C57BL/6 mouse model of inflammatory bowel disease assessed as reduction of bloody stool at 22.5 to 45 mg/kg/day, po via gavage measured upto 14 days; assay type: functional, organism-based; settings: dose 22.5-45 mg/kg/day, time <= 14.0 day
[8] = Toxicity in male Kunming mouse assessed as effect on GLU level in serum at 100 to 500 mg/kg/day, po measured after 5 weeks; assay type: organism-based; settings: in vivo, 840 h, dose 100-500 mg/kg/day
[9] = Toxicity in female Kunming mouse assessed as effect on AST level in serum at 100 to 500 mg/kg/day, po measured after 5 weeks; assay type: organism-based; settings: in vivo, 840 h, dose 100-500 mg/kg/day
[10] = Toxicity in male Kunming mouse assessed as effect on TG level in serum at 100 to 500 mg/kg/day, po measured after 5 weeks; assay type: organism-based; settings: in vivo, 840 h, dose 100-500 mg/kg/day
[11] = Toxicity in male Kunming mouse assessed as effect on lung at 100 to 500 mg/kg/day, po measured after 5 weeks by H and E staining based analysis; assay type: organism-based; settings: in vivo, 840 h, dose 100-500 mg/kg/day
[12] = Toxicity in male Kunming mouse assessed as effect on heart at 100 to 500 mg/kg/day, po measured after 5 weeks by H and E staining based analysis; assay type: organism-based; settings: in vivo, 840 h, dose 100-500 mg/kg/day
[13] = Toxicity in female Kunming mouse assessed as effect on liver at 100 to 500 mg/kg/day, po measured after 5 weeks by H and E staining based analysis; assay type: organism-based; settings: in vivo, 840 h, dose 100-500 mg/kg/day
Mus musculus [14] = assay: Antiinflammatory activity in DSS-induced male C57BL/6 mouse model of inflammatory bowel disease assessed as amelioration of infiltration of inflammatory cells at 50 to 100 microM/Kg by H and E staining based analysis; assay type: functional, organism-based; settings: dose 50-100 µM/Kg
[15] = Toxicity in female Kunming mouse assessed as effect on lung to body weight ratio at 100 to 500 mg/kg/day, po measured after 5 weeks; assay type: organism-based; settings: in vivo, 840 h, dose 100-500 mg/kg/day
[16] = Toxicity in male Kunming mouse assessed as effect on BUN level in serum at 100 to 500 mg/kg/day, po measured after 5 weeks; assay type: organism-based; settings: in vivo, 840 h, dose 100-500 mg/kg/day
[17] = Acute toxicity in male Kunming mouse assessed as effect on kidney 5 g/Kg, po measured after 5 weeks; assay type: organism-based; settings: in vivo, 5000 mg/kg, 840 h
[18] = Toxicity in male Kunming mouse assessed as effect on ALP level in serum at 100 to 500 mg/kg/day, po measured after 5 weeks; assay type: organism-based; settings: in vivo, 840 h, dose 100-500 mg/kg/day
[19] = Toxicity in male Kunming mouse assessed as effect on K inorganic salt level in serum at 100 to 500 mg/kg/day, po measured after 5 weeks; assay type: organism-based; settings: in vivo, 840 h, dose 100-500 mg/kg/day
[20] = Genotoxicity in erythrocyte (unknown origin) by Erythrocyte micronucleus test; assay type: toxicity, cell-based
Mus musculus [21] = assay: Antiinflammatory activity in DSS-induced male C57BL/6 mouse model of inflammatory bowel disease assessed as downregulation of MyD88 expression at 50 to 100 microM/Kg by Western blot analysis; assay type: functional, organism-based; settings: dose 50-100 µM/Kg
[22] = Toxicity in male Kunming mouse assessed as effect on heart to body weight ratio at 100 to 500 mg/kg/day, po measured after 5 weeks; assay type: organism-based; settings: in vivo, 840 h, dose 100-500 mg/kg/day
Mus musculus [23] = assay: Antiinflammatory activity in DSS-induced male C57BL/6 mouse model assessed as inhibition of IL-17A level in colon at 50 to 100 microM/Kg; assay type: functional, organism-based; settings: dose 50-100 µM/Kg
[24] = Toxicity in female Kunming mouse assessed as effect on kidney at 100 to 500 mg/kg/day, po measured after 5 weeks by H and E staining based analysis; assay type: organism-based; settings: in vivo, 840 h, dose 100-500 mg/kg/day
Mus musculus [25] = assay: Antiinflammatory activity in DSS-induced male C57BL/6 mouse model of inflammatory bowel disease assessed as reduction in weight loss at 22.5 to 45 mg/kg/day, po via gavage measured upto 14 days; assay type: functional, organism-based; settings: dose 22.5-45 mg/kg/day, time <= 14.0 day
Mus musculus [26] = assay: Antiinflammatory activity in male C57BL/6 mouse model of inflammatory bowel disease assessed as recovery of DSS-induced body weight loss at 40 mg/kg/day, po via gavage measured after 14 days relative to control; assay type: functional; settings: time 14 day
[27] = Toxicity in female Kunming mouse assessed as effect on spleen at 100 to 500 mg/kg/day, po measured after 5 weeks by H and E staining based analysis; assay type: organism-based; settings: in vivo, 840 h, dose 100-500 mg/kg/day
Mus musculus [28] = assay: Antiinflammatory activity in DSS-induced male C57BL/6 mouse model of inflammatory bowel disease assessed as recovery from body weight loss at 20 mg/kg/day, ip measured after 14 days relative to control; assay type: functional; settings: time 14 day
Mus musculus [29] = assay: Antiinflammatory activity in DSS-induced male C57BL/6 mouse model of inflammatory bowel disease assessed as increase in colon length at 15 mg/kg/day, po via gavage measured upto 14 days relative to control; assay type: functional; settings: time <= 14 day
Mus musculus [30] = species: Mus musculus; assay: Antiinflammatory activity in DSS-induced male C57BL/6 mouse model of inflammatory bowel disease assessed as reduction in TLR4 level; assay type: functional, organism-based
Mus musculus [31] = assay: Antiinflammatory activity in DSS-induced male C57BL/6 mouse model of inflammatory bowel disease assessed as amelioration of structural loss of colon at 50 to 200 microM/Kg by H and E staining based analysis; assay type: functional, organism-based; settings: dose 50-200 µM/Kg
Mus musculus [32] = assay: Antiinflammatory activity in DSS-induced male C57BL/6 mouse model of inflammatory bowel disease assessed as downregulation of TRAF6 expression at 50 to 200 microM/Kg by Western blot analysis; assay type: functional, organism-based; settings: dose 50-200 µM/Kg
Mus musculus [33] = assay: Antiinflammatory activity in DSS-induced male C57BL/6 mouse model of inflammatory bowel disease assessed as increase in colon length at 10 mg/kg/day, ip measured after 14 days relative to control; assay type: functional; settings: time 14 day
Mus musculus [34] = assay: Antiinflammatory activity in DSS-induced male C57BL/6 mouse model of inflammatory bowel disease assessed as downregulation of MyD88 expression at 50 to 200 microM/Kg by Western blot analysis; assay type: functional, organism-based; settings: dose 50-200 µM/Kg
Mus musculus [35] = assay: Antiinflammatory activity in DSS-induced male C57BL/6 mouse model assessed as effect on JNK phosphorylation level at 50 to 200 microM/Kg by Western blot analysis; assay type: functional, organism-based; settings: dose 50-200 µM/Kg
Mus musculus [36] = assay: Antiinflammatory activity in DSS-induced male C57BL/6 mouse model of inflammatory bowel disease assessed as recovery from body weight loss at 40 mg/kg/day, ip measured after 14 days relative to control; assay type: functional; settings: time 14 day
Mus musculus [37] = assay: Antiinflammatory activity in DSS-induced male C57BL/6 mouse model assessed as inhibition of IL-17A level in colon at 50 to 200 microM/Kg; assay type: functional, organism-based; settings: dose 50-200 µM/Kg

Compound: CC(=O)OC[C@H]1O[C@@H](OC2=C(C)OC(=C(C)C)C2=O)[C@H](OC(C)=O)[C@@H](OC(C)=O)[C@@H]1OC(C)=O
- Activity [1]: Non-toxic
- LD50 at 840 h [2]: > 500 mg/kg
- Activity [3]: Non-toxic
- Activity [4]: Non-toxic
- half-life [5]: 27.7 min
- Activity [6]: Non-toxic
- Activity (Mus musculus [7]): Active
- Activity [8]: Non-toxic
- Activity [9]: Non-toxic
- Activity [10]: Non-toxic
- Activity [11]: Non-toxic
- Activity [12]: Non-toxic
- Activity [13]: Non-toxic
- Activity (Mus musculus [14]): Active
- Activity [15]: Non-toxic
- Activity [16]: Non-toxic
- Activity [17]: Non-toxic
- Activity [18]: Non-toxic
- Activity [19]: Non-toxic
- Activity [20]: Non-toxic
- Activity (Mus musculus [21]): Active
- Activity [22]: Non-toxic
- Activity (Mus musculus [23]): Active
- Activity [24]: Non-toxic
- Activity (Mus musculus [25]): Active
- Activity (Mus musculus [26]): 49.1%
- Activity [27]: Non-toxic

Compound: CC(C)=C1OC(C)=C(O[C@@H]2O[C@H](CO)[C@@H](O)[C@H](O)[C@H]2O)C1=O
- Activity (Mus musculus [28]): 50%
- Activity (Mus musculus [29]): 79.1%
- Activity (Mus musculus [30]): Active
- Activity (Mus musculus [31]): Active
- Activity (Mus musculus [32]): Active
- Activity (Mus musculus [33]): 20.4%
- Activity (Mus musculus [34]): Active
- Activity (Mus musculus [35]): inactive
- Activity (Mus musculus [36]): 56.2%
- Activity (Mus musculus [37]): Active
